These results are taken from paper PMC10791743, “Selective CK1α degraders exert antiproliferative activity against a broad range of human cancer cell lines” (Nature Communications, 2024).

Values joined by “and” are separate entries in the source; they are usually repeats but may differ in a detail not shown here. Equal values may be shown once. A value given as a limit tells only on which side of the number the result lay.

The subject of series [1] is MOLM-13 cells overexpressing FLAG-tagged wild type CK1α. As to the kind of experiment: CK1α mutant rescue, CTG viability, FLAG-CK1α wild type MOLM-13. It is filed as cell-based, human. The procedure: To evaluate the contribution of the CK1α degradation in SJ3149-mediated cytotoxicity, we utilized the degradation-resistant mutant CK1α G40N[41]. MOLM-13 cells were transduced with lentivirus to overexpress FLAG-tagged wild type CK1α or the G40N mutant, which removes the essential glycine in the CK1α degron G-loop.
The media was changed after cells rested in the 37 °C incubator overnight. […] As described above in the Molecular Glue Library Screening section, transduced MOLM-13 cells were seeded in 384-well plates at 1250 cells per well and allowed to rest overnight. 30 nl of CK1α degraders of interest were deposited on the cells using an Echo 650 acoustic liquid handler […]. […] This was done twice for a total of six technical replicates.

Series [2] can be described thus: Metabolic stability in cryopreserved hepatocytes, human. It is filed as in vitro ADME. The note with it: human, cryopreserved hepatocytes; read-out: Hepatocyte stability t1/2. The procedure:
page 34: UHPLC-MS/MS System: Chromatographic separation was performed on an Acquity UPLC BEH […] with 6500+ Qtrap system. […] software suite. The UPLC column was maintained at 55 °C. Mobile phase A was 0.1% formic acid in MilliQ H2O and Mobile phase B was 0.1% formic acid in acetonitrile. The flow rate was 0.9 […] The mass spectrometer was operated in positive-ion mode with electrospray ionization. MRM transition m/z […] plasma stability and plasma protein binding. The following MS parameters were employed for analyte measurements: ion spray voltage 5 kV, temperature 550 °C, gas 1 and gas 2 were 60, entrance potential (EP): 10 V, declustering potential (DP): 50 V, collision energy (CE): 27 V, and collision cell exit potential (CXP): 16 V. Metabolic Stability in mouse and human cryopreserved hepatocytes. 10 mM test compounds were provided by Compound Sample Group. Diluted 10 mM test compounds and 30 mM positive control compounds (7-ethoxycoumarin) to 1 mM and 3 mM with DMSO in 96-well plates. Diluted 1 mM test compounds and 3 mM positive control compounds to 100 μM and 300 μM dosing solutions with ACN. Cryopreserved cells were thawed, isolated and suspended in Incubation Medium, then diluted with pre-warmed Incubation Medium to 0.5 × 10^6cells/mL. Added 198 μL of pre-warmed cell suspensions in 96 -well plates. Transferred 125 μL of stop solution (acetonitrile containing 200 ng/mL tolbutamide and 200 ng/mL labetalol as internal standards) in a set of pre- labeled 96-well plates. Spike d 2 μL dosing solution to each well of 96 -well plates in duplicates. For T0 Samples, mix ed to achieve a homogenous suspension for about 1 min, then immediately transferred 25 μL of each sample into well containing 125 μL of ice -cold stop solution followed by mixing. Incubated all plates at 37°C in a 95% humidified incubator at 5% CO 2 to start the reactions page 35: with constant shaking at about 600 rpm. At 15, 30, 60 and 90 min, mixed samples and then transferred 25 μL of each sample at each time point to well containing 125 μL of ice -cold stop solution followed by mixing. Medium Control (MC) sample plates (labeled as T0-MC and T90- MC) were prepared at T0 and T90 by adding the same components to each well except cell suspensions. At each corresponding time point, stopped the reactions by removing the plates from incubator and mixing with 125 μL of ice-cold stop solution. Vortexed the plates immediately on a plate shaker at 500 rpm for 10 minutes. Then, centrifuge d all sample plates at 3220 x g for 20 min at 4°C. After centrifugation, 80 μL/well of supernatant in the sample plates were transferred to another set of pre-labeled 96-well plates which containing 240 μL of ultra pure water according to the plate map. Analytical plates were sealed and stored at 4°C until LC-MS/MS analysis. Thawing Medium: Williams' Medium E containing 5% fetal bovine serum and 30% Perc oll solution and other supplements. Incubation Medium: Williams' Medium E (no phenol red) containing 2 mM L-Glutamine and 25 mM HEPES. Stop Solution: Acetonitrile containing 200 ng/mL tolbutamide and labetalol as internal standards. Dilution Solution: Ultra-pure water. The remaining percents of test articles after incubation were calculated by the follow equations: Equation ( 6): Use equation of first order kinetics [NT] […] The data was […] concatenated with a reversed decoy database for evaluating False Discovery Rate (FDR). […]

For orientation: IC50 means the point on the concentration scale where inhibition reaches its midpoint. Consider `O=C1CCC(N2Cc3cc(Nc4noc5ccccc45)ccc3C2=O)C(=O)N1` (stereo not drawn) [SJ3149], for which the “cell viability percentages, CK1a” value in series [1] (Concentration 0.000542) is 105.205% and 58.6715% and 64.466% and 67.6161% and 69.6541% and 82.1036%; in series [1] (Concentration 0.001625), 74.2908% and 52.9731% and 67.1789% and 57.7783% and 62.7672% and 68.828%; in series [1] (Concentration 0.004875), 36.1307% and 42.7391% and 40.1045% and 39.1839% and 40.0413% and 49.9053%; in series [1] (Concentration 0.043872) it was 2.187% and 2.943% and 4.508% and 8.798% and 6.315% and 7.182%; in series [1] (Concentration 0.131617), 3.39% and 3.498% and 5.044% and 4.581% and 3.4782% and 4.037%; in series [1] (Concentration 0.394851), 2.449% and 1.756% and 2.718% and 2.322% and 1.473% and 1.9709%. Also, the “cell viability percentages, CK1a” value in series [1] (Concentration 1.18455) is 1.709% and 1.723% and 2.012% and 1.573% and 1.103% and 1.1327%; in series [1] (Concentration 3.55366), 1.548% and 0.8978% and 0.8701% and 0.5259% and 0.4164% and 0.8076%. The “Bottom (line fit, sigmoidal 4PL) of cell viability, CK1a” value in series [1] (FLAG-CK1a WT cells) is 1.012%. Also, in series [1] (FLAG-CK1a WT cells), the “Top (line fit, sigmoidal 4PL) of cell viability, CK1a” value was determined as 80.73%. For the same molecule, the half-inhibitory concentration (IC50) in series [1] (Homo sapiens, MOLM-13, read-out: IC50 (line fit, sigmoidal 4PL) of cell viability, CK1a) is 5.26 nM. Also, the half-life at 1 µM in series [2] was > 3.6 h.
